# Experimental data: US11649236B2, “Polycyclic carbamoylpyridone derivative” (Shionogi & Co., Ltd., priority 2018, dated 2023)
# Tested on: HIV
# Assay: Anti-HIV activity (MT-4 cells, MTT)
# Type: cell-based
# Conditions: Human immunodeficiency virus 1, MT4, 96 h, cultured 4 days
# Description: Serial dilutions of a test sample were prepared in a 96-well microplate (50 μL/well). 2.5×10^5 cells/mL of a MT-4 cell suspension was dispensed at 100 μL/well to the plate containing the test sample. Then, an HIV virus solution was dispensed at 50 μL/well. The plate was mixed with a plate mixer and cultured for 4 days in a CO2 incubator. An MTT (3-(4,5-dimethylthiazol-2-yl)-2,5-diphenyltetrazolium bromide) solution was dispensed at 30 μL/well. The plate was reacted for 1 hour in a CO2 incubator. 150 μL of the supernatant was removed from each well so as not to take up the cells. 150 μL of a cell lysis solution was added to each well and well mixed with a plate mixer until the cells were completely lysed. The absorbance of the mixed plate was measured at two wavelengths of 560 nm and 690 nm with a microplate reader.
row,Structure (SMILES),EC50 [nM]
1,CCOC[C@@H](C)N1C(=O)c2c(O)c(=O)c(C(=O)NCc3ccc(F)cc3F)cn2N2CCCC[C@@H]12 [II-034],0.73
2,CCN1C(=O)c2c(O)c(=O)c(C(=O)NCc3ccc(Cl)cc3)cn2N2CCCC[C@@H]12 [II-140],3.6
3,CCN1C(=O)c2c(O)c(=O)c(-c3nnc(Cc4ncc(Cl)cc4F)s3)cn2N2CCCC[C@@H]12 [II-098],4
4,CN1C(=O)c2c(O)c(=O)c(C(=O)NCc3ccc(Cl)cc3F)cn2N2Cc3ccccc3[C@@H]12 [II-029],3.8
5,CN1C(=O)c2c(O)c(=O)c(C(=O)NCc3ccc(F)cc3F)cn2N2Cc3ccccc3[C@@H]12 [II-116],0.68
6,CCN1C(=O)c2c(O)c(=O)c(C(=O)NCc3ccc(F)cc3F)cn2N2CC[C@H](C(F)(F)F)C[C@@H]12 [II-114],1.5
7,CCN1C(=O)c2c(O)c(=O)c(C(=O)NCc3c(F)cc(F)cc3F)cn2N2CC[C@@H](C)C[C@@H]12 [II-044],0.84
8,CC[C@@H]1CC[C@H]2N(CC)C(=O)c3c(O)c(=O)c(C(=O)NCc4ccc(F)cc4F)cn3N12 [II-089],0.94
9,CCN1C(=O)c2c(O)c(=O)c(C(=O)NCc3cccc(Cl)c3F)cn2N2[C@H](C)CC[C@@H]12 [II-008],1.5
10,CCN1C(=O)c2c(O)c(=O)c(C(=O)NCc3ccc(F)c(C)c3F)cn2N2CCCC[C@@H]12 [Compound I-012],4
11,CCN1C(=O)c2c(O)c(=O)c(C(=O)NCc3nn(C)cc3Cl)cn2N2CCCC[C@@H]12 [II-135],18
12,CCN1C(=O)c2c(O)c(=O)c(C(=O)NCc3ccc(F)cc3F)cn2N2CCC(C)(C)[C@@H]12 [II-085],1.3
13,CCN1C(=O)c2c(O)c(=O)c(C(=O)NCc3cccc(Cl)c3F)cn2N2[C@H](C)CCC[C@@H]12 [II-032],1.5
14,CCN1C(=O)c2c(O)c(=O)c(C(=O)NCc3ccc(F)cc3F)cn2N2CCC[C@@]12C [Compound I-008],2
15,CCN1C(=O)c2c(O)c(=O)c(C(=O)NCc3ncc(F)cc3F)cn2N2CCCC[C@@H]12 [II-141],0.65
16,CCN1C(=O)c2c(O)c(=O)c(C(=O)NCc3ccc(F)cc3F)cn2N2CCN(Cc3ccccc3)C[C@@H]12 [II-100],3
17,C[C@@H]1CCC[C@H]2N(C)C(=O)c3c(O)c(=O)c(C(=O)NCc4ccc(Cl)cc4F)cn3N12 [II-091],4.1
18,C[C@@H]1CC[C@H]2N(C)C(=O)c3c(O)c(=O)c(C(=O)NCc4cccc(Cl)c4F)cn3N12 [II-047],0.57
19,CCN1C(=O)c2c(O)c(=O)c(C(=O)NCc3ccc(F)cc3F)cn2N2CC[C@@H](C(F)(F)F)C[C@@H]12 [II-132],0.51
20,CCN1C(=O)c2c(O)c(=O)c(C(=O)NCc3ccc(F)c(F)c3F)cn2N2CCCC[C@@H]12 [Compound I-025],1.9
21,CCN1C(=O)c2c(O)c(=O)c(C(=O)NCc3ccccc3OC)cn2N2CCCC[C@@H]12 [II-129],1.9
22,CCN1C(=O)c2c(O)c(=O)c(C(=O)NCc3c(F)cc(F)cc3OC)cn2N2CCCC[C@@H]12 [II-035],1.3
23,CCN1C(=O)c2c(O)c(=O)c(C(=O)NCc3ccc(F)cc3F)cn2N2CCC3(CCC3)C[C@@H]12 [II-017],1.6
24,C[C@H]1CCN2[C@@H](C1)N(C)C(=O)c1c(O)c(=O)c(C(=O)NCc3cccc(Cl)c3F)cn12 [II-058],0.79

row,Structure (SMILES),EC50 [nM]
1,CCN1C(=O)c2c(O)c(=O)c(C(=O)NCc3ccc(F)cc3F)cn2N2CCN(C(=O)OC)C[C@@H]12 [II-125],1.3
2,CCN1C(=O)c2c(O)c(=O)c(C(=O)NCc3ccc(F)cc3F)cn2N2CCN(CCOC)C[C@@H]12 [II-088],3.1
3,CCN1C(=O)c2c(O)c(=O)c(C(=O)NCc3ccc(F)cc3F)cn2N2CCC(C)(C)C[C@@H]12 [II-039],2.9
4,CCN1C(=O)c2c(O)c(=O)c(C(=O)NCc3ccccc3OC(F)F)cn2N2CCCC[C@@H]12 [II-127],3.6
5,CN1C(=O)c2c(O)c(=O)c(C(=O)NCc3cccc(Cl)c3F)cn2N2C[C@@H]3CCC[C@@H](O3)[C@@H]12 [II-152],0.7
6,CCN1C(=O)c2c(O)c(=O)c(C(=O)NCc3c(F)ccc(Cl)c3F)cn2N2CCCC[C@@H]12 [Compound I-048],1.2
7,COC[C@@H](C)N1C(=O)c2c(O)c(=O)c(C(=O)NCc3ccc(F)cc3F)cn2N2CCCC[C@@H]12 [Compound I-040],0.7
8,CCN1C(=O)c2c(O)c(=O)c(C(=O)NCc3ccc(F)nc3F)cn2N2CCCC[C@@H]12 [II-057],1.7
9,CCN1C(=O)c2c(O)c(=O)c(C(=O)NCc3cccc(Cl)c3F)cn2N2CCCC[C@@H]12 [Compound I-019],1.8
10,C[C@@H]1CCC[C@H]2N(C)C(=O)c3c(O)c(=O)c(C(=O)NCc4cccc(Cl)c4F)cn3N12 [II-014],0.55
11,CCN1C(=O)c2c(O)c(=O)c(C(=O)NCc3ccc(F)cc3F)cn2N2[C@@H](COC)CC[C@@H]12 [II-038],2
12,O=C(NCc1ccc(F)cc1F)c1cn2c(c(O)c1=O)C(=O)N(Cc1ccc(F)cc1F)[C@@H]1CCCCN12 [Compound I-043],3.5
13,CCN1C(=O)c2c(O)c(=O)c(C(=O)NCc3cccc(Cl)c3Cl)cn2N2CCCC[C@@H]12 [Compound I-033],2.5
14,CN1C(=O)c2c(O)c(=O)c(C(=O)NCc3c(F)cc(F)cc3F)cn2N2Cc3ccccc3[C@@H]12 [II-120],0.22
15,CCN1C(=O)c2c(O)c(=O)c(C(=O)NCc3ncc(F)cc3Cl)cn2N2CCCC[C@@H]12 [II-095],1.9
16,CCN1C(=O)c2c(O)c(=O)c(C(=O)NCc3ccc(F)c(Cl)c3F)cn2N2CCC[C@@H]12 [Compound I-005],1.3
17,CC(C)N1C(=O)c2c(O)c(=O)c(C(=O)NCc3c(F)cc(F)cc3F)cn2N2CC[C@@H](C)C[C@@H]12 [II-064],1.2
18,CCN1C(=O)c2c(O)c(=O)c(C(=O)NC3(c4ccc(F)cc4F)CC3)cn2N2CCCC[C@@H]12 [Compound I-017],6.1
19,O=C(NCc1ccc(F)cc1F)c1cn2c(c(O)c1=O)C(=O)N1CCCC[C@]13CCCCN23 [II-147],0.66
20,CCN1C(=O)c2c(O)c(=O)c(C(=O)NCc3ccc(F)cc3F)cn2N2Cc3cc(Cl)ccc3[C@@H]12 [II-124],2.6
21,CCN1C(=O)c2c(O)c(=O)c(C(=O)NCc3ccc(F)nc3F)cn2N2CC[C@H](C)C[C@@H]12 [II-081],3.1
22,CCN1C(=O)c2c(O)c(=O)c(C(=O)NCc3ccc(F)cc3F)cn2N2Cc3ccc(F)cc3[C@@H]12 [II-079],0.66
23,CCN1C(=O)c2c(O)c(=O)c(C(=O)NCc3cc(Cl)c(F)cc3F)cn2N2CCCC[C@@H]12 [Compound I-007],4
24,CCN1C(=O)c2c(O)c(=O)c(C(=O)NCc3ccc(F)cc3F)cn2N2CCc3ccccc3[C@@H]12 [Compound I-027],0.89

# Second part, the compound after the results:
row,EC50 [nM],Structure (SMILES)
1,2,C[C@H]1CC[C@H]2N(C)C(=O)c3c(O)c(=O)c(C(=O)NCc4ccc(F)cc4F)cn3N2C1 [II-117]
2,2.9,COCCCN1C(=O)c2c(O)c(=O)c(C(=O)NCc3ccc(F)cc3F)cn2N2CCCC[C@@H]12 [Compound I-024]
3,1.2,O=C(NCc1ccc(F)cc1F)c1cn2c(c(O)c1=O)C(=O)N([C@@H]1C[C@@H]1F)[C@@H]1CCCCN12 [Compound I-044]
4,0.71,C[C@H]1C[C@H]2N(C)C(=O)c3c(O)c(=O)c(C(=O)NCc4ccc(F)cc4F)cn3N2C1 [II-121]
5,5.6,CCN1C(=O)c2c(O)c(=O)c(C(=O)NCc3ccc(F)cc3F)cn2N2CCN(C)C[C@@H]12 [Compound I-013]
6,3.4,C[C@H]1CCN2[C@@H](C1)N(C)C(=O)c1c(O)c(=O)c(C(=O)NCc3ccc(Cl)cc3F)cn12 [II-061]
7,0.87,CN1C(=O)c2c(O)c(=O)c(C(=O)NCc3c(F)cc(F)cc3F)cn2N2C[C@@H]3CC[C@@H](O3)[C@@H]12 [II-115]
8,0.54,COC[C@@H]1CC[C@H]2N(C)C(=O)c3c(O)c(=O)c(C(=O)NCc4ccc(F)cc4F)cn3N12 [II-119]
9,0.66,CCN1C(=O)c2c(O)c(=O)c(C(=O)NCc3ccc(F)cc3F)cn2N2C[C@H](OC)CC[C@@H]12 [II-059]
10,2.4,CCN1C(=O)c2c(O)c(=O)c(C(=O)NCc3ccc(F)cc3F)cn2N2CC=C[C@@H]12 [II-109]
11,1.2,CCN1C(=O)c2c(O)c(=O)c(C(=O)NCc3ccc(F)cc3F)cn2N2CCCCC[C@@H]12 [Compound I-032]
12,1.9,CCN1C(=O)c2c(O)c(=O)c(C(=O)NCc3ccc(F)cc3F)cn2N2CCNC[C@@H]12 [Compound I-010]
13,0.69,O=C(NCc1ccc(F)cc1F)c1cn2c(c(O)c1=O)C(=O)N(C1CC1)[C@@H]1CCCCN12 [Compound I-031]
14,6.3,C[C@@H]1CCN2[C@@H](C1)N(C)C(=O)c1c(O)c(=O)c(C(=O)NCc3ccc(Cl)cc3F)cn12 [II-075]
15,1,C[C@@H]1CCN2[C@@H](C1)N(C)C(=O)c1c(O)c(=O)c(C(=O)NCc3ccc(F)cc3F)cn12 [II-086]
16,0.61,CN1C(=O)c2c(O)c(=O)c(C(=O)NCc3ccc(F)cc3F)cn2N2C[C@@H]3CC[C@@H](C3)[C@@H]12 [II-122]
17,0.58,CCN1C(=O)c2c(O)c(=O)c(C(=O)NCc3ccc(F)cc3F)cn2N2CC[C@H](COC)C[C@@H]12 [II-055]
18,0.45,CCN1C(=O)c2c(O)c(=O)c(C(=O)NCc3ccc(F)cc3F)cn2N2C[C@@H](OC)CC[C@@H]12 [II-126]
19,0.95,CCN1C(=O)c2c(O)c(=O)c(C(=O)NCc3ccc(F)cc3F)cn2N2C[C@@H]3C[C@@H]3[C@@H]12 [II-083]
20,0.68,CCN1C(=O)c2c(O)c(=O)c(C(=O)NCc3ccc(F)cc3F)cn2N2CCOCC[C@@H]12 [II-096]
21,1.4,COCCN1C(=O)c2c(O)c(=O)c(C(=O)NCc3ccc(F)cc3F)cn2N2CCCC[C@@H]12 [Compound I-016]
